Experimental data: US10875829B1, “Azetidine derivatives useful as modulators of cortical catecholaminergic neurotransmission” (Integrative Research Laboratories Sweden AB, priority 2016, dated 2020)
Counter-ions that a name gives are not always drawn. Like-named read-outs stand apart in the source and are kept apart here. Marks after values point to notes of the source that are not given here.

What was measured:
NA, DA and 5-HT = assay: In vivo brain microdialysis: extracellular monoamines in striatum and frontal cortex; parameters: species or system Sprague-Dawley rats; details: for response vs control in vivo at 50 µmol/kg / response vs control in vivo at 16.7 µmol/kg: Rattus norvegicus, sc
Excerpt: The microdialysis technique is a well-established technique for measuring extracellular levels of neurotransmitters (Ungerstedt, J Int Med, 1991, 230; 365-73). The microdialysis technique was used to measure the effect of compounds disclosed herein upon the efflux of monoamine transmitters (NA, DA and 5-HT) in striatum and frontal cortex in conscious, freely moving rats.
Male Sprague-Dawley rats weighing 280-320 g were used throughout the experiments. Before the experiment the animals were housed in groups, maximum five animals in each cage, with free access to water and food. The animals were housed at least one week prior to surgery and use in the experiments.
A modified version (Waters et al., J Neural Transm Gen Sect, 1994, 98(1); 39-55) of the !-shaped probe (Santiago and Westerink, N-S Arch Pharmacol, 1990, 342; 407-14) with the AN69 polyacrylonitrile/sodium methyl sulfonate copolymer (HOSPAL; o.d/i.d. 310/220 μm: dialysis membrane (Gambro, Lund, Sweden) was used in the microdialysis experiments. In the dorsal striatum, probes with an exposed length of 3 mm of dialysis membrane were used and in the prefrontal cortex the corresponding length was 2.5 mm. The rats were operated under isoflurane inhalation anesthesia while mounted into a Kopf stereotaxic instrument. Coordinates were calculated relative to bregma; dorsal striatum AP+1.0, ML±2.6, DV 6.2; Pf cortex, AP+3.2, ML±1.2, DV −4.0 8°, according to Paxinos and Watson (New York, Academic Press, 1986; FIG. 8 and FIG. 14). The dialysis probe was positioned in a burr hole under stereotaxic guidance and cemented with phosphatine dental cement (DAB Dental).
The rats were housed individually in cages for 48 h before the dialysis experiments, allowing them to recover from surgery and minimizing the risk of drug interactions with the anesthetics during the following experiments. During this period the rats had free access to food and water. On the day of the experiment the rats were connected to a micro-perfusion pump via a swivel and were replaced in the cage where they could move freely within its confinements. The perfusion medium was a Ringer's solution containing (in mmol/l): NaCl; 140, CaCl2); 1.2, KCl; 3.0, MgCl2; 1.0 (Moghaddam and Bunney. Neurochem., 1989, 53; 652-4). The pump was set to a perfusion speed of 2 μl/min and 40 μl sample volume were collected every 20 min.
The rats were perfused for at least 40 min before sampling began. Five fractions of each 20 min were collected and the last three were used for the establishment of the baseline. After collection of baseline fractions, the pharmacological challenge to the dialysis experiment started. Test compounds were administrated by injection (s.c.) in a volume of 5 ml/kg, with 0.9% NaCl (saline) as vehicle.
The analytical method were based on two chromatographic separations dedicated for amines or acids. Two chromatographic systems shared a common auto injector with a 10-port valve and two sample loops for simultaneous injection on the two systems.
The acids were separated by reversed phase chromatography while the amines were separated by reversed phase ion pairing chromatography preceded by a reverse phase separation in a column switching configuration. Three separation columns (Luna C18 (2), dp 3 μm, 2 mm i.d., Phenomenex) of different lengths were used. Electrochemical detection was accomplished on glassy carbon electrodes (MF-1000, Bioanalytical Systems, Inc.)
The aqueous mobile phase (0.6 ml/min) for the acid system contained citric acid (40 mM, dipotassium hydrogen phosphate 10 mM, methanol 8-11% (v/v) and EDTA 0.1 mM. Column length was 30 mm and detection potential relative to Ag/AgCl reference was 0.74V.
The aqueous ion pairing mobile phase (0.4 ml/min) for the amine system contained citric acid 5 mM, sodium citrate 10 mM, acetone 9% (v/v), tetrahydrofurane 3% (v/v), dodecane sulphonic acid 0.025 mM, and EDTA 0.1 mM. Column length was 50 mm and the preceding column was 20 mm. […]

[1] = tested on: non-pre-treated Sprague-Dawley rats; assay: Locomotor activity in drug-naïve rats (behavioural activity, distance traveled 0-60 min); format: in vivo; details: for locomotor activity: recorded for 60 minutes, control saline, n=5
Method: The effect of compounds in the present disclosure on locomotor activity in drug-naïve rats was also investigated. The animals were placed in the motility meters immediately after drug administration and locomotor activity was recorded for 60 minutes (counts/60 min±SEM). The results are presented as percent of control.
Behavioural activity was measured using eight Digiscan activity monitors (RXYZM (16) TAO, Omnitech Electronics, Columbus, Ohio, USA), connected to an Omnitech Digiscan analyzer and an Apple Macintosh computer equipped with a digital interface board (NB D10-24, National Instruments, USA). Each activity monitor consisted of a quadratic metal frame (W×L=40 cm×40 cm) equipped with photo beam sensors. During measurements of behavioural activity, a rat was put in a transparent acrylic cage (W×L×H, 40×40×30 cm) which in turn was placed in the activity monitor. Each activity monitor was equipped with three rows of infrared photo beam sensors, each row consisting of 16 sensors. Two rows were placed along the front and the side of the floor of the cage, at a 90° angle, and the third row was placed 10 cm above the floor to measure vertical activity. Photo beam sensors were spaced 2.5 cm apart. Each activity monitor was fitted in an identical sound and light attenuating box containing a weak house light and a fan.
The computer software was written using object oriented programming (LabVIEW™, National instruments, Austin, Tex., USA).
Behavioural data from each activity monitor, representing the position (horizontal center of gravity and vertical activity) of the animal at each time, were recorded at a sampling frequency of 25 Hz and collected using a custom written LABView™ application. The data from each recording session were stored and analyzed with respect to distance traveled. Each behavioural recording session lasted 60 min, starting approximately 5 min after the injection of test compound.
Compounds disclosed herein have been tested for effects on spontaneous locomotor activity in non-pre-treated Sprague-Dawley rats (based on accumulated distance traveled 0-60 min post dosing), and with doses up to 100 μmol/kg (s.c.).
The animals were placed in the motility meters immediately after drug administration and locomotor activity was recorded for 60 minutes (counts/60 min). Results are presented as percent of control means. Statistical significance was assessed using Student's t-test (2 tailed) vs controls. * denotes p<0.05, ** p<0.01, *** p<0.001, n=5.

[2] = 50 μmol/kg s.c., striatum, n=1-3
[3] = 50 μmol/kg s.c., frontal cortex, n=1-3, read-out: 5-HT FC, maximum effect compared to baseline ± SEM
[4] = 50 μmol/kg s.c., striatum, n=1-3, read-out: 5-HT Stri, maximum effect compared to baseline ± SEM
[5] = 50 μmol/kg s.c., striatum, n=1-3, read-out: DA Stri, maximum effect compared to baseline ± SEM
[6] = 50 μmol/kg s.c., frontal cortex, n=1-3, read-out: DA FC, maximum effect compared to baseline ± SEM
[7] = at the highest tested dose (100 μmol/kg s.c.)

SMILES	NA Stri, maximum effect compared to baseline ± SEM (NA, DA and 5-HT; [2])	response vs control in vivo at 50 µmol/kg (NA, DA and 5-HT; [3])	response vs control in vivo at 50 µmol/kg (NA, DA and 5-HT; [4])	response vs control in vivo at 50 µmol/kg (NA, DA and 5-HT; [5])	locomotor activity ([1]; 11 μmol/kg s.c.)	locomotor activity ([1]; 33 μmol/kg s.c.)	locomotor activity ([1]; 100 μmol/kg s.c.)	response vs control in vivo at 50 µmol/kg (NA, DA and 5-HT; [6])	effect on locomotor activity (in words) ([1]; at all tested doses (11, 33, 100 μmol/kg s.c.))	effect on locomotor activity (in words) ([1]; at the two highest doses (33, 100 μmol/kg s.c.))	response vs control in vivo at 50 µmol/kg (NA, DA and 5-HT; 50 μmol/kg s.c., frontal cortex, n=1-3, read-out: NA FC, maximum effect compared to baseline ± SEM)	effect on locomotor activity (in words) [1, 7]	NA Stri, maximum effect compared to baseline ± SEM (NA, DA and 5-HT; Dose 16.7 μmol/kg s.c, striatum)	response vs control in vivo at 16.7 µmol/kg (NA, DA and 5-HT; Dose 16.7 μmol/kg s.c, frontal cortex, read-out: 5-HT FC, maximum effect compared to baseline ± SEM)	response vs control in vivo at 16.7 µmol/kg (NA, DA and 5-HT; Dose 16.7 μmol/kg s.c, frontal cortex, read-out: DA FC, maximum effect compared to baseline ± SEM)	response vs control in vivo at 16.7 µmol/kg (NA, DA and 5-HT; Dose 16.7 μmol/kg s.c, frontal cortex, read-out: NA FC, maximum effect compared to baseline ± SEM)	response vs control in vivo at 16.7 µmol/kg (NA, DA and 5-HT; Dose 16.7 μmol/kg s.c, striatum, read-out: 5-HT Stri, maximum effect compared to baseline ± SEM)	response vs control in vivo at 16.7 µmol/kg (NA, DA and 5-HT; Dose 16.7 μmol/kg s.c, striatum, read-out: DA Stri, maximum effect compared to baseline ± SEM)
Fc1cccc(OC2CNC2)c1F [Example 1A, 3-(2,3-difluorophenoxy)azetidine hydrochloric acid salt]	155 ± 33^a % of control	207 ± 49%	217 ± 21%	155 ± 9.6%	135 ± 17 % of control means	163 ± 17* % of control means	121 ± 23 % of control means	–	–	–	–	–	–	–	–	–	–	–
Fc1cc(F)c(F)c(OC2CNC2)c1 [Example 2, 3-(2,3,5-trifluorophenoxy)azetidine hydrochloric acid salt]	–	160 ± 32%	202 ± 5.6%	134 ± 13%	66 ± 8** % of control means	57 ± 5*** % of control means	21 ± 5*** % of control means	600 ± 5.8%	significant reduction	–	–	–	–	–	–	–	–	–
Fc1cc(F)c(F)c(OC2CNC2)c1F [Example 3, 3-(2,3,5,6-tetrafluorophenoxy)-azetidine hydrochloric acid salt]	–	205 ± 78%	197 ± 80%	196 ± 22%	114 ± 18 % of control means	71 ± 26 % of control means	44 ± 8* % of control means	735 ± 18%	–	significant reduction	–	–	–	–	–	–	–	–
Fc1ccc(F)c(OC2CNC2)c1F [Example 20, 3-(2,3,6-trifluorophenoxy)azetidine hydrochloric acid salt]	–	164 ± 36%	141%	146 ± 4%	–	–	–	441 ± 35%	–	–	–	–	–	–	–	–	–	–
CCN1CC(Oc2c(F)c(F)cc(F)c2F)C1 [Example 39, 1-ethyl-3-(2,3,5,6-tetrafluorophenoxy)azetidine hydrochloric acid salt]	334 ± 10^a % of control	256%	281%	218 ± 18%	132 ± 14 % of control means	103 ± 18 % of control means	78 ± 19 % of control means	359%	–	–	414%	significant reduction	–	–	–	–	–	–
Fc1cc(F)cc(OC2CNC2)c1.O=C(O)C(O)C(O)C(=O)O [Example 52B, 3-(3,5-difluorophenoxy)azetidine (+)-tartaric acid salt]	–	–	–	–	93 ± 15 % of control means	30 ± 5* % of control means	46 ± 8 % of control means	–	–	–	–	–	151^b % of control	213 ± 86%	638 ± 106%	968 ± 176%	146 ± 18%	120 ± 6%
Fc1cc(F)cc(OC2CNC2)c1 [Example 52C, 3-(3,5-difluorophenoxy)azetidine hydrochloric acid salt]	196 ± 26^a % of control	424 ± 119%	–	147 ± 6%	128 ± 25 % of control means	74 ± 24 % of control means	73 ± 15 % of control means	–	–	–	–	–	–	–	–	–	–	–
Clc1ccc(OC2CNC2)cc1Cl [Reference Compound, 3-(3,4-dichlorophenoxy)azetidine hydrochloric acid salt, reference compound]	987 ± 425 % of control	682 ± 14%	–	136 ± 48%	132 ± 10 % of control means	108 ± 23 % of control means	323 ± 50** % of control means	–	–	–	–	significant increase	–	–	–	–	–	–
